Reference: US20260226011A1, “COMPOSITIONS AND METHODS FOR TREATING OCULAR DISEASES OR DISORDERS” (Translatum Medicus Inc., priority 2023, published 2026)

What was measured:
[1] = Acid hydrolysis of bindarit conjugates in 12M HCl, read by NMR; assay type: physicochemical; details: for hydrolysis in 12M HCl: 12M HCl at 40° C., overnight; for conjugate hydrolized (acid hydrolysis): 12M HCl, 40° C., stirred 16 hours, NMR in D2O
Experimental: Acid hydrolysis: 4 mg bindarit-taurine conjugate was added to 4 mL 12M HCl. The reaction mixture was heated to 40° C. and stirred for 16 hours, followed by concentration of the reaction mixture. About 70% (mol %) of the bindarit-taurine conjugate was hydrolized as identified by NMR in D2O (FIG. 10).
3 mg bindarit-carnosine conjugate was added to 3 mL 12M HCl. The reaction mixture was heated to 40° C. and stirred for 16 hours, followed by concentration of the reaction mixture. About 50% (mol %) of the bindarit-carnosine conjugate was hydrolized as identified by NMR in D2O (FIG. 12).

[2] = test system: monocyte chemoattractant protein-1 (MCP-1); assay: MCP-1 (ccl2) mRNA expression (qPCR) after LPS stimulation of PMA-differentiated THP-1 macrophages; assay type: cell-based, Human; details: 150 μM compound, LPS 100 ng/ml for 1 hour, qPCR delta delta Ct (FIG. 1)
Experimental: Human THP-1 monocytes were seeded at 5×10^5-9×10^5 in a 6-well plate. Phorbol myristate acetate (5 ng/ml, PMA) was added for 48-72 hours, to induce differentiation from monocytes to macrophages. Cells were then starved for 3 hours.
Cells were harvested in RNALater (Qiagen), and prepared for quantitative polymerase chain reaction (qPCR). Total RNA was isolated using Trizol Reagent (Life Technologies) based on the manufacturer's protocol and its quantity and quality checked with a Nanodrop 2000 spectrophotometer (Thermo Scientific, USA). QuantiTect Reverse Transcription Kit with separate genomic DNA removal step (Qiagen) was used based on the manufacturer's protocol. Briefly, 0.5 μg total RNA was used for each sample during reverse transcription and the resulting cDNA solution was further diluted to 10 ng/ul with nuclease free water and stored at-20 C.
PowerUp SYBR Green Master Mix (ThermoFisher Scientific) was used for quantitative PCR based on manufacturer's protocol. […]
Relative quantification method based on delta delta Ct was used for comparison of gene expression levels in various arms. Briefly, relative quantification and statistical analysis were performed using Relative Expression Software Tool-Multiple Condition Solver (REST-MCS, V2) based on the protocol by M. W. Pfaffl & G. W. Horgan (2006), which is incorporated by reference herein in its entirety.

hydrolysis in 12M HCl [1] [%]	conjugate hydrolized (acid hydrolysis) [1]	SMILES	ability to reduce MCP-1 mRNA [2]
70	About 70 % (mol %)	CC(C)(OCc1nn(Cc2ccccc2)c2ccccc12)C(=O)NCCS(=O)(=O)O [bindarit-taurine conjugate]	–
50	About 50 % (mol %)	CC(C)(OCc1nn(Cc2ccccc2)c2ccccc12)C(=O)NCCC(=O)N[C@@H](Cc1cnc[nH]1)C(=O)O [bindarit-carnosine conjugate]	–
–	–	CCOC(=O)C(C)(C)OCc1nn(Cc2ccccc2)c2ccccc12 [bindarit ethyl ester, ethyl 2-((1-benzl-1H-indazol-3-yl)methoxy)-2-methylpropanoate]	equally as efficacious as bindarit
